Source: ChEMBL document CHEMBL5303711, “ECBD screening data for assay EOS300108” (2023)
Counter-ions that a name gives are not always drawn. Activity calls are given as the source filed them. How the calls were made is not given here.

System: not listed separately
Assay: (§1) Cytotoxicity activity against human HepG2 cells assessed by CellTiter-Glo luminescent cell viability assay.
Format: toxicity, cell-based
Parameters: assay stage confirmatory assay, source tissue liver
Conditions: HepG2 cells, read-out: IC50 relative

Row | SMILES | CC50
1 | O=C1C(=O)c2ccccc2-c2ccccc21 [9,10-PHENANTHRENEQUINONE] | 1.1 µM (active)
2 | COc1cc(/C=C/C(=O)CC(=O)/C=C/c2ccc(O)c(OC)c2)ccc1O [CURCUMIN] | 5.3 µM (active)
3 | Cc1ccc(-n2sc3ccccc3c2=O)cc1 | 8.7 µM (active)
4 | O=c1c2ccccc2sn1-c1ccccc1 | 10.5 µM (active)
5 | O=C1C(Cl)=C(NCCN2CCOCC2)C(=O)c2ncccc21 | 4.5 µM (active)
6 | CN1CCN(c2ccc3nc(-c4c(N)c5c(F)cccc5[nH]c4=O)[nH]c3c2)CC1 [DOVITINIB] | 2.7 µM (active)
7 | Cc1cc(NC(=O)CSC(C)C)cc2sc(N)nc12 | 13.7 µM (active)
8 | CC1Oc2ccc(S(=O)(=O)N3CCN(C(=O)c4ccc(Br)cc4)CC3)cc2NC1=O (configuration not stated) | 4 µM (active)
9 | C[C@@H]1NC(C(=O)Nc2ccnc3ccnn23)=NN(c2ccccc2)C1=O | 13.2 µM (active)
10 | COc1cc(-c2noc(-c3ccc4c(c3)OCO4)n2)cc(OC)c1OC | 0.1 µM (active)
11 | Cc1cccn2c(CC(=O)N3CCOc4ccc(Cl)cc4C3)cnc12 | 4.9 µM (active)
12 | CC(=O)NCc1ccc(C(=O)Cn2ncc(Cl)c(Cl)c2=O)cc1 | 8 µM (active)
13 | COc1cc(N2CCC(N3CCN(C)CC3)CC2)ccc1Nc1ncc(Cl)c(Nc2ccccc2P(C)(C)=O)n1 [BRIGATINIB] | 5.7 µM (active)
14 | Cc1nn2c(ncc3c(=O)n(CCN(C)C)ccc32)c1-c1ccc(Cl)cc1 | 4 µM (active)
15 | COc1ccccc1C(=O)Cc1nc2ccccc2o1 | 8 µM (inactive)
16 | O=C(Nc1ncc(-c2ccccc2)s1)c1ccccn1 | 2.3 µM (active)
17 | CCc1cncnc1N1CCN(Cc2nc3cc(C(F)(F)F)ccc3[nH]2)CC1 | 9.5 µM (active)
18 | COc1ccc(-c2ccc3c(N4CCOC[C@@H]4C)nc(N4CCOC[C@@H]4C)nc3n2)cc1CO [AZD-8055] | 0.1 µM (active)
19 | CCc1ccc(NC(=O)N2CCN(c3cc(-n4ccc(C)n4)ncn3)CC2)cc1 | 46.2 µM (inactive)
20 | Cc1cc(C)c(Nc2ccnc(Nc3ccc(C#N)cc3)n2)c(C)c1 [DAPIVIRINE] | 6.5 µM (active)
21 | CNCC[C@H](Oc1cccc2ccccc12)c1cccs1 [DULOXETINE HYDROCHLORIDE] | 4.3 µM (active)

Row | SMILES | CC50
22 | c1cc2c(cc1C1=NN=C(NC3CC3)SC1)OCO2 | 9.1 µM (active)
23 | Cc1ccc(C)c(C(=O)CN2C3=NCCCN3c3ccccc32)c1 | 9.6 µM (active)
24 | C=CC(=O)Nc1cccc(Oc2nc(Nc3ccc(N4CCN(C)CC4)cc3OC)ncc2Cl)c1 | 2.2 µM (active)
25 | CCN1CCN(c2ccc(Nc3cc(N(C)C(=O)Nc4c(Cl)c(OC)cc(OC)c4Cl)ncn3)cc2)CC1 [INFIGRATINIB] | 3.3 µM (active)
26 | COc1cc(C(=O)NC2CCN(C)CC2)ccc1Nc1ncc2c(n1)N(C1CCCC1)CC(F)(F)C(=O)N2C | 2.9 µM (active)
27 | O=C1NCCSc2c1sc1ccc(O)cc21 | 1 µM (active)
28 | Cn1c(NC(=O)c2cccc3cc[nH]c23)nc2ccccc21 | 2.3 µM (active)
29 | CCOc1cc2ncc(C#N)c(Nc3ccc(OCc4ccccn4)c(Cl)c3)c2cc1NC(=O)/C=C/CN(C)C [NERATINIB] | 9.9 µM (inactive)
30 | Cc1cc(NC(=O)c2cnn(-c3ccccc3)n2)cc(N2CCN(C)CC2)c1 | 6.1 µM (active)
31 | N#Cc1c(Oc2ccc(F)c(NC(=O)Cc3cccc(C(F)(F)F)c3)c2)ccc2nc(NC(=O)C3CC3)sc12 | 0.4 µM (active)
32 | Cn1nc(C(=O)Nc2ccc(Oc3ccc(F)cc3)cn2)ccc1=O | 6.7 µM (active)
33 | Cc1cn(CCN2CCN(c3ccccc3-c3cc(C#N)cc(C(=O)NCCCN4CCCC4)c3)CC2)c2ccccc12 | 1.4 µM (active)
34 | c1ccc(-c2ccc(CNC3CN4CCC3CC4)cc2)cc1 (configuration not stated) | 5.6 µM (active)
35 | C=CC(=O)Nc1cccc(Nc2nc(Nc3ccc(OCCOC)cc3)ncc2F)c1 [SPEBRUTINIB] | 1.3 µM (active)
36 | O=C(Cc1ccc(-n2cccn2)cc1)Nc1nccs1 | 0.6 µM (active)
37 | COc1ccc(CNc2nccn(-c3ccc4c(c3)OCO4)c2=O)cc1OC | 9.1 µM (inactive)
38 | O=C(NC1CCNCC1)c1n[nH]cc1NC(=O)c1c(Cl)cccc1Cl [AT-7519] | 0.2 µM (active)
39 | N#Cc1ccc2[nH]c(O)c(-c3ccc(CN4CCOCC4)cn3)c2c1 [AZD-1080] | 7.3 µM (active)
40 | O=S(=O)(c1ccc(F)cc1)N1CCN(c2ccc(Nc3ccncc3)nn2)CC1 | 13.6 µM (inactive)
41 | CC(=O)N1c2ccc(-c3ccc(C(=O)O)cc3)cc2[C@H](Nc2ccc(Cl)cc2)C[C@@H]1C | 0.9 µM (active)
42 | Cc1cc(C(=O)Nc2cccc(N(C)C(=O)c3coc(C)c3)c2)co1 | 1.3 µM (active)

Row | SMILES | CC50
43 | CCc1ccc(-c2cc3c(=O)n(CC(=O)NCCN(CC)CC)ncn3n2)cc1 | 6.2 µM (active)
44 | Cn1nccc1Nc1nccc(-c2ccn([C@H](CO)c3ccc(Cl)c(F)c3)c(=O)c2)n1 [RAVOXERTINIB] | 0.7 µM (active)
45 | O=C(Nc1ccccc1O)c1cccc(NC(=O)c2cccs2)c1 | 7.1 µM (active)
46 | Cc1sc2c(c1C)C(c1ccc(Cl)cc1)=N[C@@H](CC(N)=O)c1nnc(C)n1-2 | 0.3 µM (active)
47 | CC(=O)c1cnc2ccc(-c3cc(Cl)c(O)c(Cl)c3)nc2c1N[C@H]1CC[C@H](CN(C)C)CC1 | 0.1 µM (active)
48 | COc1ccc(C(=O)Nc2ccc(OC3CCN(C)CC3)cc2)c(OC)n1 | 13.4 µM (active)
49 | O=c1ccc2ccc(OCCCCN3CCN(c4cccc5sccc45)CC3)cc2[nH]1 [BREXPIPRAZOLE] | 8.4 µM (active)
50 | COc1ccc(OC)c(C(O)CN2CCN(c3cccc(C)c3C)CC2)c1 (configuration not stated) | 9.9 µM (active)
51 | CCn1c(Oc2cccc3cccnc23)nc2c1c(=O)n(C)c(=O)n2C | 2.9 µM (active)
52 | COc1ccc(C(N)=O)c(OCc2cccc3cccnc23)c1 | 0.3 µM (active)
53 | Cc1cccc(Cl)c1OCCN(C)CC1(C)COC1 | 50 µM (inactive)
54 | Cc1ccc(NC(=O)c2nc(S(C)(=O)=O)ncc2Cl)cc1 | 4.1 µM (active)
55 | COc1ccc(NC(=O)c2cc(-c3ccccc3O)no2)cc1 | 12.3 µM (active)
56 | COc1ccc(OC2CCN(CCC(=O)Nc3cccc(F)c3)CC2)cc1 | 14.8 µM (inactive)
57 | [O-][n+]1ccccc1S [PYRITHIONE] | 1.1 µM (active)
58 | CCC(C)n1ncn(-c2ccc(N3CCN(c4ccc(OCC5COC(Cn6cncn6)(c6ccc(Cl)cc6Cl)O5)cc4)CC3)cc2)c1=O (configuration not stated) [ITRACONAZOLE] | 4.9 µM (active)
59 | COc1cc(F)ccc1NC(=O)c1ccc(-c2ccccn2)[nH]c1=O | 11 µM (active)
60 | CC(C)(O)CC(=O)NCCn1ccc2ncnc(Nc3ccc(Oc4cccc(C(F)(F)F)c4)c(Cl)c3)c21 [TAK-285] | 10.5 µM (active)
61 | CC1(C)CN2C(CS/C(=N\C3CCCCC3)NC3CCCCC3)=CSC2=N1 | 6 µM (active)

System: HepG2
Assay: as §1
Format: toxicity, cell-based
Parameters: assay stage confirmatory assay, source tissue liver
Conditions: hepg2, read-out: IC50 relative

Row | SMILES | CC50
62 | O=C1C(=O)c2ccccc2-c2ccccc21 [9,10-PHENANTHRENEQUINONE] | 1.2 µM (active)
63 | COc1cc(/C=C/C(=O)CC(=O)/C=C/c2ccc(O)c(OC)c2)ccc1O [CURCUMIN] | 7.1 µM (active)
64 | Cc1ccc(-n2sc3ccccc3c2=O)cc1 | 9.1 µM (active)
65 | O=c1c2ccccc2sn1-c1ccccc1 | 13 µM (inactive)
66 | O=C1C(Cl)=C(NCCN2CCOCC2)C(=O)c2ncccc21 | 4 µM (active)
67 | CN1CCN(c2ccc3nc(-c4c(N)c5c(F)cccc5[nH]c4=O)[nH]c3c2)CC1 [DOVITINIB] | 4.4 µM (active)
